One may read the EC50 as the concentration that produces a half-maximal response. A word on the IC50: it is the concentration that gives 50% inhibition. A word on the Ki: it is a dissociation constant, usually derived from enzyme kinetics or from competition with a known ligand. A lower Ki goes with higher affinity.

Test [1] has as its target T1, Estrogen receptor beta (Homo sapiens, UniProt Q92731). In words: Agonist activity at ER-beta (unknown origin) transfected in HEK293T cells assessed as stimulation of transcriptional activity after 24 hrs by luciferase reporter gene assay relative to 17-beta estradiol. The settings on record: HEK-293T. It counts as cell-based. (In general: Reporter assays use an easily measured gene product as a stand-in for the process of interest.)

Test [2] has as its target T1, Estrogen receptor beta. In words: Agonist activity at ER-beta (unknown origin) transfected in HEK293T cells assessed as stimulation of transcriptional activity after 24 hrs by luciferase reporter gene assay. The class given is cell-based, HEK-293T.
For test [3], the system named is DU-145. In words: cells. The class given is functional, cell-based. The note with it: Homo sapiens, DU-145, 72 h.
The subject of test [4] is Vero. In words: cells. The class given is ADME, cell-based. The note with it: Chlorocebus sabaeus, 72 h.
Test [5] addresses T2, Estrogen receptor (Homo sapiens) (UniProt P03372).
T2 sequence (whole entry): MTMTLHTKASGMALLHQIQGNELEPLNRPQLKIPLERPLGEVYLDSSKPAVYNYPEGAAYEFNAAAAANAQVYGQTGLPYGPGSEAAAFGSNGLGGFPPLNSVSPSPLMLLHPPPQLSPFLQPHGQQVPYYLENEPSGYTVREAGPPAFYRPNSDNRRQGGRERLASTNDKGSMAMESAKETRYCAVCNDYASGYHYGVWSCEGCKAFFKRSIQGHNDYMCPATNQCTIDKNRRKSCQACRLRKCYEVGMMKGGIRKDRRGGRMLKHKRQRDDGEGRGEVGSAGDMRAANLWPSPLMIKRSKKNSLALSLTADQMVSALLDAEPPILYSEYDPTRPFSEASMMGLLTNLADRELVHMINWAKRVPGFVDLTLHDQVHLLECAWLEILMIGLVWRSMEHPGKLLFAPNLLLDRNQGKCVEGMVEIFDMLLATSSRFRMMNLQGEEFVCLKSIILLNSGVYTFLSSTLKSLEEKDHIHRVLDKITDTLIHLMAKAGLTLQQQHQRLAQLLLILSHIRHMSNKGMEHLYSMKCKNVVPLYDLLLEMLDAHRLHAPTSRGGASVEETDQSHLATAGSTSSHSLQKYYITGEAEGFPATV
In words: Agonist activity at ER-alpha (unknown origin) transfected in HEK293T cells assessed as stimulation of transcriptional activity after 24 hrs by luciferase reporter gene assay relative to 17-beta estradiol. The class given is cell-based. The settings on record: HEK-293T.

Test [6] concerns the target T1, Estrogen receptor beta. In words: Antagonist activity at ER-beta (unknown origin) transfected in HEK293T cells assessed as inhibition of transcriptional activity after 24 hrs by luciferase reporter gene assay relative to 17-beta estradiol. The note with it: HEK-293T. It counts as cell-based.
For test [7], the target named is T2, Estrogen receptor (Homo sapiens). In words: Antagonist activity at ER-alpha (unknown origin) transfected in HEK293T cells assessed as inhibition of transcriptional activity after 24 hrs by luciferase reporter gene assay relative to 17-beta estradiol. The settings on record: HEK-293T. The class given is cell-based.
The test system of test [8] is MCF7. In words: cells. The settings on record: Homo sapiens, MCF7, 72 h. The class given is functional, cell-based.
Test [9] has as its target Histone deacetylase 1 (Homo sapiens, UniProt Q13547). In words: Inhibition of human recombinant HDAC1 after 15 mins by fluorogenic assay.
Test [10] concerns the target T3, Protein deacetylase HDAC6 (Homo sapiens, UniProt Q9UBN7).
T3 sequence (Q9UBN7 whole entry): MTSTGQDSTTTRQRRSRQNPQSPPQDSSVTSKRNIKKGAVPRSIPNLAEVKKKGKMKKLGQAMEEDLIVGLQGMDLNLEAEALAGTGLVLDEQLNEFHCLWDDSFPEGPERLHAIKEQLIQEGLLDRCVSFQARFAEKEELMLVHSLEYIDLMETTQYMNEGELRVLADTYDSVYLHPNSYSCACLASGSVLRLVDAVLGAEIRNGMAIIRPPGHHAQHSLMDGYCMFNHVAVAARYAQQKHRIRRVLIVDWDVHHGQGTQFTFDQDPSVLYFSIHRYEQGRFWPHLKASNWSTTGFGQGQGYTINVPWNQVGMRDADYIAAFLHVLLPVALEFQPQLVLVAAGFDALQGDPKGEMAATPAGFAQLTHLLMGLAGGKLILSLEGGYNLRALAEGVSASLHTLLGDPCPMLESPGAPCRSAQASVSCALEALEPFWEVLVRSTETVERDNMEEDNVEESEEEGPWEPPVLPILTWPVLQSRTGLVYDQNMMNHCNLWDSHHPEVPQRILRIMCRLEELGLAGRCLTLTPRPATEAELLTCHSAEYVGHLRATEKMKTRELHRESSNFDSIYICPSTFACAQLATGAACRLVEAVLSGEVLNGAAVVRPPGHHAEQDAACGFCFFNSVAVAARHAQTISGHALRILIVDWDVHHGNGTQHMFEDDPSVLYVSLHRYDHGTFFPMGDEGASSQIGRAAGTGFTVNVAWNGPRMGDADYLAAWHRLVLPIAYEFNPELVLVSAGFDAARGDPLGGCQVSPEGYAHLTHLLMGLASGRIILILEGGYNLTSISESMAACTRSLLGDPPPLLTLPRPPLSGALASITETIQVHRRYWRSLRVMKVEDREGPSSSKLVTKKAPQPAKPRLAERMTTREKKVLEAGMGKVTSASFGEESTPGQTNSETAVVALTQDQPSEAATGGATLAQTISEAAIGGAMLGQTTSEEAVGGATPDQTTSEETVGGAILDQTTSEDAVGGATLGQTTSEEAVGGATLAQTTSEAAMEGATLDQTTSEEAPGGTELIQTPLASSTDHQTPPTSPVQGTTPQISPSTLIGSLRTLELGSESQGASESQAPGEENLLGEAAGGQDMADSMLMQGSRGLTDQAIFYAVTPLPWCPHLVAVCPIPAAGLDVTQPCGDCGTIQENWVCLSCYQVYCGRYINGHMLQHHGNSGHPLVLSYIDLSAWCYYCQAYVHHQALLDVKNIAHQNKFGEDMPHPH
In words: Inhibition of human recombinant HDAC6 after 15 mins by fluorogenic assay.

The target in test [11] is T4, Estrogen receptor (Homo sapiens, UniProt P03372).
T4 sequence (P03372 whole entry): T2 sequence (whole entry)
In words: Antagonist activity at ER-alpha (unknown origin) transfected in HEK293T cells assessed as inhibition of transcriptional activity after 24 hrs by luciferase reporter gene assay. The class given is cell-based, HEK-293T.

Test [12] deals with T1, Estrogen receptor beta. In words: Binding affinity to human ER-beta ligand binding domain after 2 hrs by competitive fluorometric binding assay.
Test [13] has as its target T4, Estrogen receptor. In words: Binding affinity to human ER-alpha ligand binding domain after 2 hrs by competitive fluorometric binding assay.

T1 sequence (Q92731 whole entry): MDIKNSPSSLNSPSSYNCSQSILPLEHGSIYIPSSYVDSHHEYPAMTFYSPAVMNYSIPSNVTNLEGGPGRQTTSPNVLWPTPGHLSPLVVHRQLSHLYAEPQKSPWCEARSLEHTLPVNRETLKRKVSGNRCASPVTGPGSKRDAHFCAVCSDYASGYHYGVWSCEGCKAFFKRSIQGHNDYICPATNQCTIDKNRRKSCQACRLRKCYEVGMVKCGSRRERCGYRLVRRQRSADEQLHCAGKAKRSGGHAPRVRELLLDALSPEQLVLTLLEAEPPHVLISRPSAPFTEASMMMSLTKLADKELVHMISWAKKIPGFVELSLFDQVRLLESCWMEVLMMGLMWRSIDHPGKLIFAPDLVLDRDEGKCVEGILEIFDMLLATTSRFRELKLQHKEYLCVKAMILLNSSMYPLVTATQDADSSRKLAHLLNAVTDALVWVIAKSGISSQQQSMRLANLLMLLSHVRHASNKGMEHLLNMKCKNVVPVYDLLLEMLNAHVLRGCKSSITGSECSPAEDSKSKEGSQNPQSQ
Sequence of Histone deacetylase 1 (Q13547 whole entry): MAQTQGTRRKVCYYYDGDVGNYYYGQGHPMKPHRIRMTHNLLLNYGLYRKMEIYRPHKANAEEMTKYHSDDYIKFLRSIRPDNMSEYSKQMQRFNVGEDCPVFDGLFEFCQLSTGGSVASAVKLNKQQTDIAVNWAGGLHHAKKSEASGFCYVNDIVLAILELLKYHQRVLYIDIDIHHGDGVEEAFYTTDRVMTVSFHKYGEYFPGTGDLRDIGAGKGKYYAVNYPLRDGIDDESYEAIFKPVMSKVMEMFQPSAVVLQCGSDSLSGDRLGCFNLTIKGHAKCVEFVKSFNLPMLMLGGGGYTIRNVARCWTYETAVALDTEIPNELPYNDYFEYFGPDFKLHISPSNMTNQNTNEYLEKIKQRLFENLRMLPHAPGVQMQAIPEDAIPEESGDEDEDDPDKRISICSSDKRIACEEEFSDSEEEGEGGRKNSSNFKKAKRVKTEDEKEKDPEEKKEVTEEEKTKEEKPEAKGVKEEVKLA

Turning to `O=C(O)CCCCCCC(=O)Nc1cccc(OS(=O)(=O)C2CC3OC2C(c2ccc(O)cc2)=C3c2ccc(O)cc2)c1` (stereo not drawn), the Efficacy is 47% in test [1], 51% in test [5], 102% in [6] and 122% in [7]. For the same compound, the EC50 in [2] is 2.1 µM. For the same compound, the IC50 in test [3], in [4] and in test [8] was greater than 100 µM in each case.
On to `O=C(O)CCCCCCC(=O)Nc1ccc(C2=C(c3ccc(O)cc3)C3CC(S(=O)(=O)Oc4cccc5ccccc45)C2O3)cc1` (stereo not drawn), for which the IC50 result in [9] was “Not Active”; in test [3], 48.6 µM; in test [8], 4.7 µM; in [10], “Not Active”. Moreover, the Efficacy in [1] is -13%; in test [5], 5%; in test [6] it was 15%; in test [7], 14%.
Consider `Cc1ccc(OS(=O)(=O)C2CC3OC2C(c2ccc(NC(=O)CCCCCCC(=O)O)cc2)=C3c2ccc(O)cc2)cc1` (racemic), for which the IC50 in test [11] was 1.08 µM; in [3], 80.8 µM; in test [4], greater than 100 µM; in test [8], 60.5 µM. The Efficacy in test [1] was 8%; in [5] it was -6%; in test [6] it was 111%; in test [7], 36%. The EC50 in [2] was determined as 0.52 µM. Moreover, the Ki in test [12] amounted to 0.0873 µM.
For the compound `Cc1cccc(OS(=O)(=O)C2CC3OC2C(c2ccc(NC(=O)CCCCCCC(=O)O)cc2)=C3c2ccc(O)cc2)c1` (racemic), the IC50 is 2.98 µM in test [9] (read-out: IC50), 52.4 µM in test [3], 3.8 µM in test [8] and “Not Active” in test [10]. Besides, the Efficacy was -11% in [1], -28% in test [5], 87% in [6] and 43% in test [7].
For the compound `O=C(O)CCCCCCC(=O)Nc1ccc(C2=C(c3ccc(O)cc3)C3CC(S(=O)(=O)Oc4ccccc4O)C2O3)cc1` (racemic), the IC50 in [11] was 0.14 µM; in test [3], 27.7 µM; in test [4], greater than 100 µM; in [8], 27.9 µM. For the same compound, the Efficacy was 37% in test [1], 12% in test [5], 87% in test [6] and 24% in [7].
Regarding `O=C(O)CCCCCCC(=O)Nc1ccc(C2=C(c3ccc(O)cc3)C3CC(S(=O)(=O)Oc4ccccc4C(F)(F)F)C2O3)cc1` (racemic), the IC50 is 0.64 µM in test [11], greater than 100 µM in test [3], greater than 100 µM in test [4] and 26.1 µM in test [8]. Besides, the Efficacy came out at 10% in [1], 9% in [5], 102% in test [6] and 37% in [7]. This compound returned a Ki in [13] of 3.87 µM.
On to `O=C(CCCCCCC(=O)Nc1ccc(C2=C(c3ccc(O)cc3)C3CC(S(=O)(=O)Oc4ccccc4)C2O3)cc1)NO` (racemic), for which the Efficacy amounted to 38% in test [1], 20% in test [5], 92% in test [6] and 77% in test [7]. Also, the EC50 in [2] amounted to 0.002 µM. Besides, the IC50 is 37.7 µM in test [3], greater than 100 µM in test [4] and 30.1 µM in test [8]. The Ki in test [13] was greater than 5 µM.
`Cc1ccc(OS(=O)(=O)C2CC3OC2C(c2ccc(NC(=O)CCCCCCC(=O)NO)cc2)=C3c2ccc(O)cc2)cc1` (racemic): the Efficacy in test [1] is 52%; in test [5], -28%; in test [6], 95%; in [7] it was 116%. The EC50 in [2] came out at 0.038 µM. For the same compound, the 50% inhibitory concentration (IC50) in [3] is 42.9 µM; in test [4], greater than 100 µM; in test [8], 40.4 µM. Further, the Ki in [12] and in [13] was greater than 5 µM in each case.
As to `Cc1ccccc1OS(=O)(=O)C1CC2OC1C(c1ccc(NC(=O)CCCCCCC(=O)NO)cc1)=C2c1ccc(O)cc1` (racemic), the Efficacy in test [1] was 27%; in test [5], -20%; in [6], 94%; in test [7], 126%. Moreover, the EC50 in test [2] is 0.203 µM. The values for the IC50 in test [3], in [4] and in test [8] were 30.7 µM, greater than 100 µM and 24.1 µM, respectively. Besides, the Ki was 2.12 µM in test [12] and greater than 5 µM in [13].
Regarding `COc1ccccc1OS(=O)(=O)C1CC2OC1C(c1ccc(NC(=O)CCCCCCC(=O)NO)cc1)=C2c1ccc(O)cc1` (racemic), the Efficacy was determined as 53% in test [1], 9% in test [5], 74% in test [6] and 164% in test [7]. In addition, the EC50 in [2] is 0.023 µM. The concentration for half-maximal inhibition (IC50) was 44.7 µM in test [3], greater than 100 µM in test [4] and 25.8 µM in [8]. In [13], this compound yielded a Ki greater than 5 µM.
For the compound `O=C(CCCCCCC(=O)Nc1ccc(C2=C(c3ccc(O)cc3)C3CC(S(=O)(=O)Oc4ccc(F)cc4)C2O3)cc1)NO` (racemic), the Efficacy in [1] was found to be 49%; in [6] it was 86%; in test [7] it was 135%. Moreover, the EC50 in [2] came out at 0.002 µM. For the same compound, the IC50 was 47.3 µM in test [3], greater than 100 µM in test [4] and 23.4 µM in [8]. The values for the Ki in test [12] and in test [13] were 3.4 µM and greater than 5 µM, respectively.
For the compound `O=C(CCCCCCC(=O)Nc1ccc(C2=C(c3ccc(O)cc3)C3CC(S(=O)(=O)Oc4cccc5ccccc45)C2O3)cc1)NO` (racemic), the IC50 result in test [9] is “Not Active”; in test [3] it was 8.57 µM; in test [4], greater than 100 µM; in [8] it was 13.4 µM; in [10] (read-out: IC50), 0.03 µM. For the same compound, the Efficacy in [1] was 36%; in [5] it was -22%; in test [6] it was 94%; in [7], 88%. The compound also yielded a Ki in test [13] greater than 5 µM.
As for `O=S(=O)(Oc1ccccc1)[C@H]1C[C@H]2O[C@@H]1C(c1ccc(O)cc1)=C2c1ccc(O)cc1` (relative stereo), the IC50 entry in [9] was “Not Active”; in test [3] it was greater than 100 µM; in [4], greater than 100 µM; in test [8] it was 20.9 µM; in test [10], “Not Active”.
